For data set [1], the system named is HMC3 (human microglia) immortalized cell line. Nature of the data set: pHrodo-myelin phagocytosis assay, HMC3. To be noted: 10-point dose-response up to 20 or 40 μM, 24 or 48 h. The format is cell-based. Here is the method: (§1) Microglial viability and phagocytosis studies: The pHrodo-myelin phagocytosis/cell viability assay, modified based on a published method, was run with BV2 (mouse microglia) and HMC3 (human microglia) immortalized cell lines in the Chu lab at IUSM. The 384-well plate high content analysis assay with BV2 and HMC3 microglial cell lines is used to quantify phagocytosis and cell viability simultaneously. High content imaging is performed with the ArrayScan automatic imaging system and imaging analysis done with the system’s software. Cells are treated with compounds for total 48 hours including final 20 hours seeded with pHrodo-myelin (labeled phagocytosis ligand, purified from mouse brain), then cells are stained with Hoechst- […]
(§2) Three measurements are extracted from the assay: 1) phagocytosis signal by mean total phagocytosis spot intensity per cell, 2) total cell counts per well as the main measurement of cell viability, and 3) mean average nuclear intensity per cell as profiling of cell health since apoptotic cells showing nuclear intensity increase (early apoptosis) and decrease (later apoptosis), respectively. […]
(§3) dose-response follow-up in duplicate or triplicate. These compounds were initially dosed up to […]

In data set [2] the test system is BV2 (mouse microglia) immortalized cell line. The experiment in a line: pHrodo-myelin phagocytosis assay, BV2. The format is cell-based. Conditions: 10-point dose-response up to 20 or 40 μM, 24 or 48 h. Here is the method: as §1, §2, §3
In data set [3] the test system is HMC3 (human microglia) immortalized cell line. The experiment in a line: Microglial cell viability (cell count, nuclear measures), HMC3. Format: cell-based. Conditions: 10-point dose-response up to 20 or 40 μM, 24 or 48 h. The procedure:
Microglial viability and phagocytosis studies: The pHrodo-myelin phagocytosis/cell viability assay, modified based on a published method, was run with BV2 (mouse microglia) and HMC3 (human microglia) immortalized cell lines in the Chu lab at IUSM. The 384-well plate high content analysis assay with BV2 and HMC3 microglial cell lines is used to quantify phagocytosis and cell viability simultaneously. High content imaging is performed with the ArrayScan automatic imaging system and imaging analysis done with the system’s software. Cells are treated with compounds for total 48 hours including final 20 hours seeded with pHrodo-myelin (labeled phagocytosis ligand, purified from mouse brain), then cells are stained with Hoechst-33342 one hour before the imaging. Three measurements are extracted from the assay: 1) phagocytosis signal by mean total phagocytosis spot intensity per cell, 2) total cell counts per well as the main measurement of cell viability, and 3) mean average nuclear intensity per cell as profiling of cell health since apoptotic cells showing nuclear intensity increase (early apoptosis) and decrease (later apoptosis), respectively.
Based on the single-concentration data, several compounds were selected for 10-point dose-response follow-up in duplicate or triplicate. These compounds were initially dosed up to 20 μM for 24h. […]

The test system of data set [4] is BV2 (mouse microglia) immortalized cell line. The experiment in a line: Microglial cell viability (cell count, nuclear measures), BV2. Format: cell-based. To be noted: 10-point dose-response up to 20 or 40 μM, 24 or 48 h. The procedure:
as §1, §2, §3

For data set [5], the system named is HMC3 (human microglia) immortalized cell line. To be noted: cited from earlier work; for Phagocytosis HMC3: 10 μM single concentration, normalized to control (DMSO) treated cells.
Data set [6] has as its system BV2 (mouse microglia) immortalized cell line. Conditions: cited from earlier work; for Phagocytosis BV2: 10 μM single concentration, normalized to control (DMSO) treated cells.
The test system of a further data set is cellular system. More on the design: method as in column References for potency and dosing (the 5th table c13). To be noted: published data; References for potency and dosing; cited from earlier work.
Data set [7] relates to HMC3 (human microglia) immortalized cell line. To be noted: 10 μM single concentration, normalized to control (DMSO) treated cells; in % (unit assumed); cited from earlier work.
Data set [8] relates to BV2 (mouse microglia) immortalized cell line. To be noted: 10 μM single concentration, normalized to control (DMSO) treated cells; in % (unit assumed); cited from earlier work.
For data set [9] the following is noted: aqueous, neutral pH (7.4); cited from earlier work.
The test system of another data set is CYP3A43. Conditions: published affinity; ref PubMed 10801218, 1526623; cited from earlier work.
A further data set concerns GPCRs. Conditions: profiled against many of the same GPCRs; cited from earlier work.
The test system of data set [10] is tau phosphorylation. More on the design: method as in PMID 32063836, PMID 28502066. Conditions: cited from earlier work.
In another data set the test system is ALK. Also on record: method as in PubMed 24819116, 25733882. To be noted: published affinity; ref PubMed 24819116, 25733882; cited from earlier work.
The test system of the next data set is ERBB3 (HER3). More on the design: method as in PubMed 20145185. To be noted: published affinity; ref PubMed 20145185; cited from earlier work.
The next data set has as its system Aβ40 and Aβ42. Also on record: method as in PMID 25331948. Conditions: 2 mg/kg; cited from earlier work.
For data set [11], the system named is tau phosphorylation. Also on record: method as in PMID 25331948. Conditions: only observed at 10 μM; cited from earlier work.
The mark [12] stands for this setting: 10 μM, murine immortalized microglial cells.
Setting [13] is: 10 μM, human immortalized microglial cells.

The values below come from article PMC9005681, “Use of AD Informer Set compounds to explore validity of novel targets in Alzheimer's disease pathology” (Alzheimer's & Dementia : Translational Research & Clinical …, 2022).

Where a name gives a salt, the structure may show the parent alone. Read-outs that look alike come from different tables or passages of the source. Where only a bound is given, the exact number is not on record here.

Turning to `CC(=O)N1CCN(c2ccc(OCC3COC(Cn4ccnc4)(c4ccc(Cl)cc4Cl)O3)cc2)CC1` (stereo not drawn) [UNC10100724A, Ketoconazole], the “Phagocytosis in dose-response follow-up, HMC3” value in data set [1] is recorded as “stimulation of phagocytosis was observed”. The “Phagocytosis in dose-response follow-up, BV2” value in [2] is listed as “stimulation of phagocytosis was observed”. Further, the “Toxicity in dose-response follow-up, HMC3” value in [3] is “without notable toxicity”. The “Toxicity in dose-response follow-up, BV2” value in data set [4] is “without notable toxicity”. Further, the “Phagocytosis HMC3” value in data set [5] is 144.4. The “Phagocytosis BV2” value in [6] was 280.0. The “Stimulation of mouse microglial phagocytosis at 10 μM (>150% control)” value in data set [6] (setting [12]) was “Y (The compound was found to stimulate phagocytosis (response threshold: >150% control) when murine immortalized microglial cells were dosed at 10 μM (Y: yes))”. The “Reported as cell active (<10 μM)” value in the data set on cellular system is on record as “Y (Published data supports that the compound is active in a cellular system when dosed at 10 μM (Y/N))”. In data set [7], the “Cell number HMC3” value was 125.5, the “DNA intensity HMC3” value was 100.1 and the “Nuclear size HMC3” value is recorded as 96.3. Also, in [8], the “Cell number BV2” value was 129.7, the “DNA intensity BV2” value was 104.7 and the “Nuclear size BV2” value was 103.8. In addition, the Kinetic solubility in data set [9] is 119.6 µM. In addition, in the data set on CYP3A43, the “Reported on-target biochemical potency, CYP3A43” value is reported as 64000 nM.
Regarding `COc1cc(-c2cc3ncccc3c(O[C@H](C)[C@H]3CNC(=O)C3)n2)cc(OC)c1OC` [BI1002494], the “GPCR affinity (published profiling)” value in the data set with GPCRs is listed as “lacked this activity”.
For the compound `O=c1c2ccccc2[se]n1-c1ccccc1` [Ebselen], the Tau phosphorylation entry in the data set on tau phosphorylation [10] is “decrease tau phosphorylation”.
As for `C[C@H]1Oc2cc(cnc2N)-c2c(nn(C)c2C#N)CN(C)C(=O)c2ccc(F)cc21` [UNC10244898A, Lorlatinib], in data set [1], the “Phagocytosis in dose-response follow-up, HMC3” value was “inhibition/stimulation of phagocytosis occurred at a much lower concentration”. Moreover, in data set [2], the “Phagocytosis in dose-response follow-up, BV2” value is listed as “inhibition/stimulation of phagocytosis occurred at a much lower concentration”. Further, the “Toxicity in dose-response follow-up, HMC3” value in [3] is on record as “Some toxicity was observed”. In data set [4], the “Toxicity in dose-response follow-up, BV2” value is “Some toxicity was observed”. Further, the “Phagocytosis HMC3” value in data set [5] is reported as 37.8. Also, the “Inhibition of human microglial phagocytosis at 10 μM (<70% control)” value in [5] (setting [13]) is listed as “Y (The compound was found to inhibit phagocytosis (response threshold: <70% control) when human immortalized microglial cells were dosed at 10 μM (Y: yes))”. Besides, in data set [6], the “Phagocytosis BV2” value is recorded as 200.3. In data set [6] (setting [12]), the “Stimulation of mouse microglial phagocytosis at 10 μM (>150% control)” value was “Y (The compound was found to stimulate phagocytosis (response threshold: >150% control) when murine immortalized microglial cells were dosed at 10 μM (Y: yes))”. Moreover, the “Reported on-target biochemical potency, ALK” value with ALK was less than 0.07 nM. Besides, the “Reported as cell active (<10 μM)” value with cellular system is “Y (Published data supports that the compound is active in a cellular system when dosed at 10 μM (Y/N))”. In data set [7], the “Cell number HMC3” value is given as 127.2, the “DNA intensity HMC3” value is 89.2 and the “Nuclear size HMC3” value was 110.3. Further, in data set [8], the “Cell number BV2” value is reported as 117.2, the “DNA intensity BV2” value is listed as 110.1 and the “Nuclear size BV2” value is given as 102.7. For the same compound, the Kinetic solubility in data set [9] is 172 µM.
For `COc1cc2c(cc1OC)C(=O)C(CC1CCN(Cc3ccccc3)CC1)C2` (stereo not drawn) [UNC10240506B, Donepezil Hydrochloride (E2020)], in the data set with cellular system, the “Reported as cell active (<10 μM)” value is recorded as “Y (Published data supports that the compound is active in a cellular system when dosed at 10 μM (Y/N))”. Besides, in data set [7], the “Cell number HMC3” value is on record as 130.2 and the “DNA intensity HMC3” value was 98.0. Besides, the “DNA intensity BV2” value in data set [8] is given as 104.5.
Regarding `CNC(=O)CN1CCC(Oc2cc3c(Nc4cccc(Cl)c4F)ncnc3cc2OC)CC1` [UNC10302865A, Sapitinib (AZD8931)], the “Phagocytosis in dose-response follow-up, HMC3” value in [1] is listed as “stimulation of microglial phagocytosis”. Besides, the “Phagocytosis in dose-response follow-up, BV2” value in data set [2] was “inhibition of phagocytosis”. Besides, in data set [4], the “Toxicity in dose-response follow-up, BV2” value is on record as “Some toxicity was observed at the highest concentrations”. For the same compound, the “Phagocytosis HMC3” value in data set [5] is 152.7. Besides, in [5] (setting [13]), the “Stimulation of human microglial phagocytosis at 10 μM (>150% control)” value is listed as “Y (The compound was found to stimulate phagocytosis (response threshold: >150% control) when human immortalized microglial cells were dosed at 10 μM (Y: yes))”. In addition, the “Phagocytosis BV2” value in [6] is given as 68.8. Further, the “Inhibition of mouse microglial phagocytosis at 10 μM (<70% control)” value in data set [6] (setting [12]) is “Y (The compound was found to inhibit phagocytosis (response threshold: <70% control) when murine immortalized microglial cells were dosed at 10 μM (Y: yes))”. The “Reported on-target biochemical potency, ERBB3 (HER3)” value in the data set on ERBB3 (HER3) is given as 4 nM. The “Reported as cell active (<10 μM)” value in the data set with cellular system is listed as “Y (Published data supports that the compound is active in a cellular system when dosed at 10 μM (Y/N))”. In data set [7], the “Cell number HMC3” value is 132.1, the “DNA intensity HMC3” value was 90.8 and the “Nuclear size HMC3” value is on record as 105.8. Further, in data set [8], the “Cell number BV2” value is 102.4, the “DNA intensity BV2” value is given as 101.0 and the “Nuclear size BV2” value was 110.1. In addition, the Kinetic solubility in data set [9] was 114.6 µM.
Regarding `COc1ccc(-c2cc3nccn3c(Nc3ncccc3C(N)=O)n2)cc1OC` [BAY61‐3606], the “Detectable levels of Aβ40 and Aβ42” value in the data set with Aβ40 and Aβ42 is reported as “significant reduction”. In addition, the Tau phosphorylation result in the data set on tau phosphorylation [11] is recorded as “indirectly reduces tau phosphorylation”.
